Results published in ChEMBL document CHEMBL3774345, “Synthesis of new diarylamides with pyrimidinyl pyridine scaffold and evaluation of their anti-proliferative effect on cancer cell lines” (Bioorg Med Chem Lett, 2016).

Columns and labels:
Assay type in all cases: functional
[1] = system: NCI-H522; assay: Cytotoxicity against human NCI-H522 cells assessed as cell growth at 10 uM after 24 hrs by SRB assay; conditions: NCI-H522, 24 h, read-out: Activity
[2] = Cytotoxicity against human HCT15 cells assessed as cell growth at 10 uM after 24 hrs by SRB assay; conditions: HCT-15, 24 h, read-out: Activity
[3] = Cytotoxicity against human SW620 cells assessed as cell growth at 10 uM after 24 hrs by SRB assay; conditions: SW-620, 24 h, read-out: Activity
[4] = Cytotoxicity against human SF268 cells assessed as cell growth at 10 uM after 24 hrs by SRB assay; conditions: SF-268, 24 h, read-out: Activity
[5] = Cytotoxicity against human SF295 cells assessed as cell growth at 10 uM after 24 hrs by SRB assay; conditions: SF-295, 24 h, read-out: Activity
[6] = Cytotoxicity against human SNB75 cells assessed as cell growth at 10 uM after 24 hrs by SRB assay; conditions: SNB-75, 24 h, read-out: Activity
[7] = system: SK-MEL-28; assay: Cytotoxicity against human SK-MEL-28 cells assessed as cell growth at 10 uM after 24 hrs by SRB assay; conditions: SK-MEL-28, 24 h, read-out: Activity
[8] = Cytotoxicity against human UACC257 cells assessed as cell growth at 10 uM after 24 hrs by SRB assay; conditions: UACC-257, 24 h, read-out: Activity
[9] = Cytotoxicity against human OVCAR5 cells assessed as cell growth at 10 uM after 24 hrs by SRB assay; conditions: OVCAR-5, 24 h, read-out: Activity
[10] = Cytotoxicity against human NCI-ADR-RES cells assessed as cell growth at 10 uM after 24 hrs by SRB assay; conditions: read-out: Activity
[11] = system: ACHN; assay: Cytotoxicity against human ACHN cells assessed as cell growth at 10 uM after 24 hrs by SRB assay; conditions: read-out: Activity
[12] = Cytotoxicity against human Caki1 cells assessed as cell growth at 10 uM after 24 hrs by SRB assay; conditions: CAKI-1, 24 h, read-out: Activity
[13] = system: SN12C; assay: Cytotoxicity against human SN12C cells assessed as cell growth at 10 uM after 24 hrs by SRB assay; conditions: read-out: Activity
[14] = Cytotoxicity against human DU145 cells assessed as cell growth at 10 uM after 24 hrs by SRB assay; conditions: DU-145, 24 h, read-out: Activity
[15] = Cytotoxicity against human NCI60 cells assessed as growth inhibition at 10 uM after 24 hrs by SRB assay; conditions: NCI60, 24 h
[16] = Cytotoxicity against human HL-60(TB) cells assessed as cell growth at 10 uM after 24 hrs by SRB assay; conditions: HL-60, 24 h, read-out: Activity
[17] = system: K562; assay: Cytotoxicity against human K562 cells assessed as cell growth at 10 uM after 24 hrs by SRB assay; conditions: K562, 24 h, read-out: Activity
[18] = Cytotoxicity against human MOLT4 cells assessed as cell growth at 10 uM after 24 hrs by SRB assay; conditions: MOLT-4, 24 h, read-out: Activity
[19] = system: SR; assay: Cytotoxicity against human SR cells assessed as cell growth at 10 uM after 24 hrs by SRB assay; conditions: read-out: Activity
[20] = system: NCI-H226; assay: Cytotoxicity against human NCI-H226 cells assessed as cell growth at 10 uM after 24 hrs by SRB assay; conditions: NCI-H226, 24 h, read-out: Activity
[21] = system: NCI-H23; assay: Cytotoxicity against human NCI-H23 cells assessed as cell growth at 10 uM after 24 hrs by SRB assay; conditions: NCI-H23, 24 h, read-out: Activity
[22] = Cytotoxicity against human UO31 cells assessed as growth inhibition at 10 uM after 24 hrs by SRB assay; conditions: UO-31, 24 h, read-out: GI
[23] = Cytotoxicity against human HOP92 cells assessed as growth inhibition at 10 uM after 24 hrs by SRB assay; conditions: HOP-92, 24 h, read-out: GI
[24] = system: NCI-H522; assay: Cytotoxicity against human NCI-H522 cells assessed as growth inhibition at 10 uM after 24 hrs by SRB assay; conditions: NCI-H522, 24 h, read-out: GI
[25] = Cytotoxicity against human RPMI8226 cells assessed as growth inhibition at 10 uM after 24 hrs by SRB assay; conditions: RPMI-8226, 24 h, read-out: GI
[26] = system: SK-MEL-5; assay: Cytotoxicity against human SK-MEL-5 cells assessed as growth inhibition at 10 uM after 24 hrs by SRB assay; conditions: SK-MEL-5, 24 h, read-out: GI
[27] = system: MDA-MB-231; assay: Cytotoxicity against human MDA-MB-231 cells assessed as growth inhibition at 10 uM after 24 hrs by SRB assay; conditions: MDA-MB-231, 24 h, read-out: GI
[28] = system: T47D; assay: Cytotoxicity against human T47D cells assessed as growth inhibition at 10 uM after 24 hrs by SRB assay; conditions: read-out: GI

| SMILES | growth at 10 µM [1] [%] | growth at 10 µM [2] [%] | growth at 10 µM [3] [%] | growth at 10 µM [4] [%] | growth at 10 µM [5] [%] | growth at 10 µM [6] [%] | growth at 10 µM [7] [%] | growth at 10 µM [8] [%] | growth at 10 µM [9] [%] | growth at 10 µM [10] [%] | growth at 10 µM [11] [%] | growth at 10 µM [12] [%] | growth at 10 µM [13] [%] | growth at 10 µM [14] [%] | inhibition at 10 µM [15] [%] | growth at 10 µM [16] [%] | growth at 10 µM [17] [%] | growth at 10 µM [18] [%] | growth at 10 µM [19] [%] | growth at 10 µM [20] [%] | other results |
| --- | --- | --- | --- | --- | --- | --- | --- | --- | --- | --- | --- | --- | --- | --- | --- | --- | --- | --- | --- | --- | --- |
| O=C(Nc1cc(-c2cccnc2)nc(NCCCN2CCOCC2)n1)c1ccc(F)cc1Cl | 87.1 | 94.5 | 90.3 | 94.9 | 100 | 112 | 108 | 95.4 | 100 | 94.5 | 102 | 90.3 | 92.1 | 112 | 3.57 | 83.6 | 83.3 | 98.4 | 92.8 | 108 | growth at 10 µM [21]: 90.5%; inhibition of growth at 10 µM [22]: 23% |
| COCCCNc1nc(NC(=O)c2cc(OC)cc(OC)c2)cc(-c2cccnc2)n1 | 76.5 | 90.3 | 101 | 100 | 100 | 73.1 | 105 | 106 | 95.7 | 83.5 | 98.2 | 99.4 | 95.3 | 101 | 8.06 | 90.2 | 86.1 | 83.5 | 80.6 | 96.5 | growth at 10 µM [21]: 98.6%; inhibition of growth at 10 µM [23]: 47.4%; inhibition of growth at 10 µM [24]: 23.5%; inhibition of growth at 10 µM [22]: 43.3%; inhibition of growth at 10 µM [25]: 30.6%; inhibition of growth at 10 µM [26]: 27.6%; inhibition of growth at 10 µM [27]: 30.9%; inhibition of growth at 10 µM [28]: 36.2% |
| COCCCNc1nc(NC(=O)c2ccc(Cl)cc2C)cc(-c2cccnc2)n1 | 78.6 | 109 | 109 | 104 | 104 | 87.6 | 104 | 85.7 | 91.6 | 108 | 99.1 | 99.5 | 111 | 103 | 0.78 | 106 | 104 | 93.9 | 110 | 89.1 | growth at 10 µM [21]: 107%; inhibition of growth at 10 µM [23]: 33%; inhibition of growth at 10 µM [24]: 21.4% |
